Measurements published in US20260272797A1, “FRAGRANCE COMPOSITION” (GIVAUDAN SA, priority 2023, published 2026).

Tests used:
[1] = Gas-phase evaluation of each fragrance ingredient alone against model scalp malodour, MiniVAS device, panel of 5 experts; settings: for Scalp MOC of ingredient alone: expert description
Experimental: In a first set of experiments, the scalp malodour counteractancy of 173 fragrance ingredients was evaluated by panel of 5 experts.
The evaluation was performed in the gas phase, using a MiniVAS™ device (ex Givaudan SA). This device is a regulating means that comprises a plurality of channels adapted to convey a gas (more particularly air) through cartridges, each cartridge containing a fragrance ingredient adsorbed onto an adsorbent. The air flows coming from the different cartridges are admixed and conveyed to the user's nose through a tubing fitted with an olfactometer funnel. Thus, by opening and closing channels and maintaining these opened and closed, respectively, for predetermined times, the regulating means can determine which fragrance ingredients and how much thereof are conveyed and when, and thus alter the nature of the fragrance perceived by the user. A description of the device can be found in WO2014154909A1, page 2, line 11 to page 4, line 7, and in H. R. Gygax et al. “Evolution of Real Time Aroma Creation at Givaudan”, poster presented at the 12th Weurman Flavour Research Symposium. July 2008. Interlaken, Switzerland; DOI: 10.13140/2.1.1924.0641.
For the sake of the present evaluation, one cartridge contained the scalp malodour (in the form of a model malodour) and each fragrance ingredient was assigned to another cartridge. The malodour counteractancy of each fragrance ingredient was evaluated separately against the scalp malodour. A constant air flow rate of 50 ml/min was used for all measurements. The perceived malodour intensity, as well as the fragrance intensity, were ranked on a scale of 1-5 (1=barely noticeable, 2=weak, 3=medium, 4=strong and 5=very strong).

[2] = Impact of fragrance ingredients on scalp malodour counteractancy of 80 fragrance compositions (Example 2 protocol, statistical presence); settings: series of 80 fragrance compositions
Experimental: In a second set of experiments, the impact of these fragrance ingredients on the scalp malodour counteractancy of a fragrance composition was assessed. The scalp malodour counteractancy of a series of 80 fragrance compositions was assessed by performing the evaluation protocol described in Example 2. […] Ingredients that were statistically more present in fragrances having a high malodour counteractancy were assigned a positive status, whereas ingredients that were statistically more present in compositions having a low malodour counteractancy were assigned a negative status.

[3] = Table 4, air flow 50 ml/min, scale of 1-5
[4] = Table 3, air flow 50 ml/min, scale of 1-5 (1=barely noticeable, 5=very strong)

Compound	MO intensity [1, 3]	Impact on scalp MOC of fragrance composition ([2]; Table 4)	MO intensity [1, 4]	Impact on scalp MOC of fragrance composition ([2]; Table 3)	Scalp MOC of ingredient alone ([1]; Table 3, gas phase)	Scalp MOC of ingredient alone ([1]; Table 4, gas phase)
CCCC1CCOC(C)S1 (stereo not shown) [2-methyl-4-propyl-1,3-oxathiane]	1	Negative	–	–	–	–
OCCc1ccccc1 [2-phenylethanol]	3.2	Negative	–	–	–	–
C=CCc1ccc(O)c(OC)c1 [4-allyl-2-methoxyphenol]	–	–	4	Positive	–	–
CCC(C)(O)CCCC(C)C (stereo not shown) [3,7-dimethyloctan-3-ol]	3	Negative	–	–	–	–
CC1CCC2(CCC(=O)O2)CC1 (stereo not shown) [8-methyl-1-oxaspiro[4.5]decan-2-one]	–	–	2.7	Positive	–	–
C/C(=C\CCC=O)CCCC(C)(C)O [(4E)-9-hydroxy-5,9-dimethyl-4-decenal]	–	–	1	Positive	No effect	–
C=CC(C)(O)CC/C=C(\C)CCC=C(C)C (stereo not shown) [(E)-3,7,11-trimethyldodeca-1,6,10-trien-3-ol]	–	–	1	Positive	No effect	–
CCCCC/C=C\C=C\C(=O)OCC [(2E,4Z)-ethyl deca-2,4-dienoate]	1	Negative	–	–	–	–
CCOC(=O)C1=C(C)C=CCC1(C)C [ethyl 2,6,6-trimethylcyclohexa-1,3-diene-1-carboxylate]	1	Negative	–	–	–	–
C/C=C/C(=O)/C(C)=C(\C)C(C)C [(2E,5E)-5,6,7-trimethylocta-2,5-dien-4-one]	–	–	1.5	Positive	–	–
C=CCc1ccc(OC(C)=O)c(OC)c1 [4-allyl-2-methoxyphenyl acetate]	1	Negative	–	–	–	–
mercapto-para-menthan-3-one	–	–	1	Positive	No effect	–
COc1ccc(C=O)cc1 [4-methoxybenzaldehyde]	–	–	3	Positive	–	–
CC(=O)/C(C)=C/C1=C(C)CCCC1(C)C [(E)-3-methyl-4-(2,6,6-trimethylcyclohex-1-en-1-yl)but-3-en-2-one]	–	–	3	Positive	–	–
CC1C/C=C/CCCCCCCC(=O)OCC1 (stereo not shown) [(E)-13-methyloxacyclopentadec-10-en-2-one]	–	–	2	Positive	–	–
C/C=C(\CC)CCC(C)CCO (stereo not shown) [(E)-6-ethyl-3-methyloct-6-en-1-ol]	–	–	3	Positive	–	–
CC(=O)/C(C)=C/C1C(C)=CCCC1(C)C (stereo not shown) [(E)-3-methyl-4-(2,6,6-trimethylcyclohex-2-en-1-yl)but-3-en-2-one]	–	–	3	Positive	–	–
CC(=O)OC1CCCCC1C(C)(C)C (stereo not shown) [2-(tert-butyl)cyclohexyl acetate]	–	–	2	Positive	–	–
CC1(CO)CC1CC1CC2CC2(C)C1(C)C (stereo not shown) [1-methyl-2-((1,2,2-trimethylbicyclo[3.1.0]hexan-3-yl)methyl)cyclopropyl)methanol]	–	–	3.3	Positive	–	–
CC1CCC(C(C)C)C(O)C1 (stereo not shown) [2-isopropyl-5-methylcyclohexanol]	–	–	1.2	Positive	–	–
C=CCCC(=O)/C=C/C1C(C)=CCCC1(C)C (stereo not shown) [(E)-1-(2,6,6-trimethylcyclohex-2-en-1-yl)hepta-1,6-dien-3-one]	3	Negative	–	–	–	Good coverage

Compound	MO intensity [1, 3]	Impact on scalp MOC of fragrance composition ([2]; Table 4)	MO intensity [1, 4]	Impact on scalp MOC of fragrance composition ([2]; Table 3)	Scalp MOC of ingredient alone ([1]; Table 3, gas phase)	Scalp MOC of ingredient alone ([1]; Table 4, gas phase)
Cc1ncsc1CCO [2-(4-Methyl-1,3-thiazol-5-yl)ethanoL]	–	–	1	Positive	No effect	–
CC(C)CC1CC(C)(O)CCO1 (stereo not shown) [tetrahydro-4-methyl-2-(2-methylpropyl)-2H-pyran-4-ol]	2.2	Negative	–	–	–	Low coverage
CCOC(=O)C1OC1(C)c1ccccc1 (stereo not shown) [ethyl methyl phenyl glycidate]	1	Negative	–	–	–	–
CC(=O)O[C@H]1CC2CC1[C@H]1CC=C[C@@H]21 (stereo partly drawn) [(3aR,6S,7aS)-3a,4,5,6,7,7a-hexahydro-1H-4,7-methanoinden-6-yl acetate]	3.8	Negative	–	–	–	–
CCCCCC/C=C/C(=O)OC [(E)-methyl non-2-enoate]	–	–	1	Positive	No effect	–
Cc1cc(CC(C)C)ccc1CCC=O [3-(4-(2-methylpropyl)-2-methylphenyl)propanal]	–	–	2.8	Positive	–	–
CC(=O)OC/C=C(/C)CCC=C(C)C [(Z)-3,7-dimethylocta-2,6-dien-1-yl acetate]	1	Negative	–	–	–	–
CCC1OC(C)=C(O)C1=O (stereo not shown) [2-ethyl-4-hydroxy-5-methylfuran-3(2H)-one]	4.5	Negative	–	–	–	–
CC1=CC(C)C(C=O)CC1 (stereo not shown) [2,4-dimethylcyclohex-3-enecarbaldehyde]	3.8	–	–	–	–	Good coverage
CC(C)CCCC(C)CCO (stereo not shown) [3,7-dimethyloctan-1-ol]	–	–	4.3	Positive	–	–
CCCc1ccc(O)c(OC)c1 [2-methoxy-4-propylphenol]	–	–	2	Positive	–	–
CC(=O)c1cc2c(cc1C)C(C)(C)C(C)CC2(C)C (stereo not shown) [1-(3,5,5,6,8,8-hexamethyl-5,6,7,8-tetrahydronaphthalen-2-yl)ethanone]	–	–	3	Positive	–	–
OCC1COC(Cc2ccccc2)O1 (stereo not shown) [(2-benzyl-1,3-dioxolan-4-yl)methanol]	1	Negative	–	–	–	–
COc1cc(C=O)ccc1OC(=O)C(C)C [4-formyl-2-methoxyphenyl 2-methylpropanoate]	–	–	1.5	Positive	–	–
CC(C)C1CCC(CO)CC1 (stereo not shown) [(4-isopropylcyclohexyl)methanol]	–	–	3	Positive	–	–
CCCCCCCC1CCCC(=O)O1 (stereo not shown) [6-heptyltetrahydro-2H-pyran-2-one]	–	–	3	Positive	–	–
CC(C)c1ccc(CO)cc1 [(4-isopropylphenyl)methanol]	–	–	2	Positive	–	–
CCC(=O)OCc1ccccc1 [benzyl propanoate]	1	Negative	–	–	–	–
CCCCCCC1C(=O)CCC1C(=O)OC (stereo not shown) [methyl 2-hexyl-3-oxocyclopentane-1-carboxylate]	1	Negative	–	–	–	–
C[C@@H]1CC[C@H]2C(C)(C)[C@H]3C[C@@]12CC1OC(C)(C)OC13C (stereo partly drawn) [(4aR,5R,7aS,9R)-Octahydro-2,2,5,8,8,9a-hexamethyl-4H-4a,9-methanoazuleno[5,6-d]-1,3-dioxole]	–	–	4	Positive	–	–
CCCCCCC#CC(=O)OC [methyl non-2-ynoate]	–	–	1.8	Positive	–	–
